Read-outs that look alike come from different tables or passages of the source.
How the values were obtained:
[1] = test system: DA receptor; assay: DA metabolism (DOPAC, HVA levels) in habituated rats; format: in vivo, rat (male Sprague-Dawley); conditions: Rattus norvegicus, 1 h; for response vs control in vivo at 6.2 µmol/kg: 6.2 μmol/kg sc; for response vs control in vivo at 25 µmol/kg: 25 μmol/kg sc
Protocol: (§1) Footnotes Table 3. The rats were habituated to the motility meters 60 min
The rats were immediately killed after the activity session, striata
(§2) and limbic levels of DOPAC and 5HIAA were measured by means of HPLCEC. *p
(§3) In the experiments with habituated rats no NSD was administered and the animals were killed one hour after drug administration. […] The levels were expressed as % of controls (DOPAC and 5-HIAA see Table 3). The in vivo brain microdialysis experiments were performed in conscious rats as described by Waters et al., Eur. J. Pharm., 187, 425-34 (1990).
(§4) Injection volumes were 5 mL/kg.
After the activity session the rats were killed and the brain levels of HVA and DOPAC were measured (data are expressed as means ±SEM).

[2] = molecular target: T1, D2 receptors (Rattus norvegicus, UniProt P61169); assay: D2 antagonist binding ([3H]-spiperone), rat striatum; conditions: [3H]-spiperone, rat striatum; read-out: in vitro binding IC50, D2 -spip
T1 construct: Preparation of rat striatal membranes for (3H)-spiperone; from tissue; host or cells: rat striatum (striatal membranes)
T1 sequence (P61169 whole entry): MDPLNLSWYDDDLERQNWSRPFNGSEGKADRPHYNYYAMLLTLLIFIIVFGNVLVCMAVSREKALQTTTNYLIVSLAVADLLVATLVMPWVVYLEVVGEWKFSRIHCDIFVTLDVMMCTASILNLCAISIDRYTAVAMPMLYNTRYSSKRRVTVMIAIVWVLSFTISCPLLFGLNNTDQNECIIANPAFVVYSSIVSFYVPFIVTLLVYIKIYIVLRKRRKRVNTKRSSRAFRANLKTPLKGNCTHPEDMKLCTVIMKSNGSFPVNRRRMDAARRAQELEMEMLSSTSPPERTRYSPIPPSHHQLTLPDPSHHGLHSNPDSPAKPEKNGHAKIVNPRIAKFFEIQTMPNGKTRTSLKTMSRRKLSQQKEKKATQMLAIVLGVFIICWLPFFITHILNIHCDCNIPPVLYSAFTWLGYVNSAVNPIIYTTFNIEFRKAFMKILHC
Protocol: D2 antagonist binding. Preparation of rat striatal membranes for (3H)-spiperone (specific activity 21-24 Ci/mmol) binding was carried out in a similar manner as described for D1-binding, Hyttel et al., J. Neural. Transm., 68, 171 (1987).
IC50 values were calculated by semi-log plot and linear regression analysis.

[3] = test system: 5-HT receptor; assay: 5-HT metabolism (5-HIAA levels) in habituated rats; format: in vivo, rat (male Sprague-Dawley)
Protocol: as §1
SEM. The rats were immediately killed after the activity session, striata
as §2, §3
Injection volumes were 5 mL/kg. […]

[4] = molecular target: T2, 5-HT1A (Rattus norvegicus, UniProt P19327); assay: 5-HT1A radioligand binding ([3H]-8-OH-DPAT); design: species or system rat (male Sprague-Dawley); conditions: [3H]-8-OH-DPAT, rat cortex; read-out: in vitro binding IC50, 5HT1A
T2 construct: the whole brain with the exception of the brainstem and cerebellum was rapidly removed; from tissue
T2 sequence (P19327 1-422): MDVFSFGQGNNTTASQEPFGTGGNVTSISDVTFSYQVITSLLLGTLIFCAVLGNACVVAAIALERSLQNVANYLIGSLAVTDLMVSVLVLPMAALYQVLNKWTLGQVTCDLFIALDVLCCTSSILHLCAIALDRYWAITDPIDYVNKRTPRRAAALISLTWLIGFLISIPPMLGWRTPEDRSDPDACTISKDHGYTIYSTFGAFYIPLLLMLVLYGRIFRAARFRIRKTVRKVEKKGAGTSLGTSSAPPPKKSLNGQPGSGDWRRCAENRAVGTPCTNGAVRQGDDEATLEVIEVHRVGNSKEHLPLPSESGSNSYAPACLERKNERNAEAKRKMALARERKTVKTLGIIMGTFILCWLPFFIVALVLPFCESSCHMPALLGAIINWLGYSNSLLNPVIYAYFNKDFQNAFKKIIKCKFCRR
Protocol: ^b Serotonin 5HT1A ([^3 H]-8OH-DPAT, agonist) rat cortex.
5-HT1A radioligand binding. Male Sprague-Dawley rats (160-225 g) were killed by decapitation and the whole brain with the exception of the brainstem and cerebellum was rapidly removed, weighed and chilled in ice-cold 0.9% NaCl. Each brain was homogenized (Ultra-Turrax, 20 s) in 10 mL ice-cold 50 mM Tris buffer (pH 8.0 at 25° C.) containing 120 mM NaCl, 4 mM CaCl2 and 4 mM MgCl2 and centrifuged at 20,000 g's at 4° C. for 10 minutes. Pellets were resuspended in 10 mL fresh buffer and preincubated for 10 minutes in a 37° C. waterbath and then recentrifuged. Final pellets were homogenized in 100 volumes (w/v) of Tris buffer (as described above) containing 10 μM pargyline. The incubation tubes were kept on ice in triplicates and received 100 μL drug solution in water (or water for total binding) and 1000 μL membrane suspension (corresponds to 10 mg original tissue). The binding experiment was initiated by addition of 100 μL of (3H)-8-OH-DPAT (specific activity 143-158 Ci/mmol) in ascorbic acid (the final incubation concentration was 1 nM (3H)-8-OH-DPAT in 0.1% ascorbic acid). After incubation for 15 minutes at 37° C. the reaction was terminated by separation of the free radioligand from bound by rapid vacuum filtration using a cell harvester equipment (O. M. Teknik, Denmark). The tubes were rinsed with 4 mL and the filters (Whatman GF/F 25 mm) were washed twice with 4 mL ice-cold 0.9% NaCl.
The radioactivity of the filters was measured in a liquid scintillation counter (efficiency 41%) in 5 mL Picofluor®. Specific binding (70-75% of total binding) was defined as the radioactivity displaced by 10 μM 5-HT. IC50 values were calculated by semi-log plot and linear regression analysis.

[5] = test system: habituated rats; assay: Locomotor activity and behavior in habituated rats; format: in vivo, rat (male Sprague-Dawley); conditions: habituated rats
Protocol: as §1
prior to the activity session.
as §4
Locomotor activity was measured in rats which were habituated 60 minutes to the activity meters before drug injection. The activity was measured for the subsequent 60 minutes and expressed as % of controls (means ±SEM, n=4).

[6] = test system: DA receptor; assay: DOPA accumulation (DA synthesis rate) in non-pretreated rats after NSD 1015; conditions: 100 sc
[7] = test system: non-pretreated rats; assay: Locomotor activity and gross behavior in non-habituated (non-pretreated) rats; conditions: 100 sc, non-pretreated rats
Source text: Immediately after drug administration, the rats were placed in the test cages (one rat/cage) and put into the motility meters. […] Observations of gross behavior were made throughout the activity sessions through semi-transparent mirrors.
Animals used in the biochemical and motor activity experiments were male rats of the Sprague-Dawley strain (ALAB, Sollentuna, Sweden), weighing 200-300 g. The rats were kept 5 per cage with free access to water and food (except for the starved animals for the experiments with per oral administration, who were only allowed water the last 18 hours before testing), at least one week from arrival until used in the experiments.
All substances to be tested were dissolved in saline immediately before use, occasionally with the addition of a few drops of glacial acetic acid and/or moderate heating in order to obtain complete dissolution. Injection volumes were 5 mL/kg.
Analysis of variance (ANOVA) followed by Fischer's test was used for the statistical calculations.
In vivo behavioral data was obtained with rats injected with drug and 5 minutes later put into the motility chambers for the first time. The motor activity was measured for the subsequent 30 minutes (accumulated counts/30 minutes) and expressed as % of saline treated controls.

[8] = test system: 5-HT receptor; assay: 5-HTP accumulation (5-HT synthesis rate) in non-pretreated rats after NSD 1015; format: in vivo, rat (male Sprague-Dawley); conditions: 100 sc
Protocol: observations are commented to the right. After the session the rats were
accumulation in the NErich cortical regions and 5HTP in the limbic
as §4

[9] = 100 μmol/kg sc, habituated rats, read-out: DOPAC limbic
[10] = 100 μmol/kg sc, habituated rats, read-out: DOPAC striatum
[11] = Rattus norvegicus, 1 h, 100 μmol/kg sc, 60 min, read-out: Motor Activity
[12] = habituated rats, read-out: DOPAC limbic
[13] = habituated rats, read-out: DOPAC striatum

Structure (SMILES) | IC50 [2] | IC50 [4] | response vs control in vivo at 100 µmol/kg [1, 9] | response vs control in vivo at 100 µmol/kg [1, 10] | 5-HIAA limbic ([3]; 100 μmol/kg sc) | Behavioral observations ([5]; 100 μmol/kg sc) | response vs control in vivo at 100 µmol/kg [5, 11] | other results
C=CCN1CCC[C@@H](c2cccc(OS(=O)(=O)C(F)(F)F)c2)C1 [Compound S-17, S-3-((3-(Trifluoromethyl)sulfonyl)oxyphenyl-N-allyl)piperidine] | 28 µM | 4.2 µM | 159 ± 18% | 222 ± 12% | 93 ± 6 % of saline treated controls | Activation | 195 ± 13% | 
C=Cc1cccc([C@@H]2CCCN(CCC)C2)c1 [Compound S-41, S-3-(3-Vinylphenyl-N-n-propyl)piperidine] | 3.5 µM | 0.46 µM |  |  | 92 ± 14 % of saline treated controls | Activation | 529 ± 204% | response vs control in vivo at 100 µmol/kg ([1]; sc, read-out: DOPAC limbic): 136 ± 15%; response vs control in vivo at 100 µmol/kg ([1]; sc, read-out: DOPAC striatum): 134 ± 13%
CN1CCC[C@@H](c2cccc(OS(=O)(=O)C(F)(F)F)c2)C1 [S-(+)-13, S-(+)-3-((3-(Trifluoromethyl)sulfonyl)oxyphenyl-N-methyl)-piperidine] | 71 µM | 2.8 µM | 138 ± 10% | 172 ± 11% | 109 ± 2 % of saline treated controls | No change | 135 ± 14% | 

The remaining compounds from weak to strong by IC50 [2], led by results:

IC50 [2] | IC50 [4] | Structure (SMILES) | response vs control in vivo at 100 µmol/kg [1, 9] | response vs control in vivo at 100 µmol/kg [1, 10] | 5-HIAA limbic ([3]; 100 μmol/kg sc) | Behavioral observations ([5]; 100 μmol/kg sc) | response vs control in vivo at 100 µmol/kg [5, 11] | other results
25 µM | 1.7 µM | CCCN1CCC[C@@H](c2cccc(OS(C)(=O)=O)c2)C1 [Compound S-22, S-3-((3-Methylsulfonyl)oxyphenyl-N-n-propyl)piperidine] | 209 ± 11% | 276 ± 12% | 118 ± 11 % of saline treated controls | Activation | 550 ± 50% | 
7.1 µM | 1.3 µM | CCN1CCC[C@@H](c2cccc(OS(=O)(=O)C(F)(F)F)c2)C1 [S-(-)-14, S-(-)-3-((3-(Trifluoromethyl)sulfonyl)oxyphenyl-N-ethyl)-piperidine] | 223 ± 39% | 293 ± 29% | 98 ± 33 % of saline treated controls | Activation | 404 ± 205% | DOPA acc Cortex [6]: 80 ± 4 % of saline controls; DOPA acc Stratium [6]: 286 ± 33 % of saline controls; Gross Behavioral Observations [7]: No change; Motor Act. ([7]; 30 min): 103 ± 19 % of saline controls; 5-HTP acc Limbic Region [8]: 76 ± 9 % of saline controls
1.6 µM | 2.3 µM | CCCN1CCC[C@@H](c2cccc(OS(=O)(=O)C(F)(F)F)c2)C1 [S-(-)-15, S-(-)-3-((3-(Trifluoromethyl)sulfonyl)oxyphenyl-N-n-propyl)-piperidine] | 196 ± 16% | 217 ± 3% | 140 ± 11 % of saline treated controls | Activation | 445 ± 131% | response vs control in vivo at 6.2 µmol/kg [1, 12]: 134 ± 10%; response vs control in vivo at 6.2 µmol/kg [1, 13]: 118 ± 10%; response vs control in vivo at 25 µmol/kg [1, 12]: 145 ± 11%; response vs control in vivo at 25 µmol/kg [1, 13]: 175 ± 8%; 5-HIAA limbic ([3]; 6.2 μmol/kg sc): 139 ± 9 % of saline treated controls; 5-HIAA limbic ([3]; 25 μmol/kg sc): 126 ± 5 % of saline treated controls; Behavioral observations ([5]; 6.2 μmol/kg sc): No change; Motor Activity ([5]; 6.2 μmol/kg sc, 60 min): 91 ± 94 % of saline treated controls; Behavioral observations ([5]; 25 μmol/kg sc): No change; response vs control in vivo at 25 µmol/kg ([5]; Rattus norvegicus, 1 h, 25 μmol/kg sc, 60 min, read-out: Motor Activity): 128 ± 33%

From patent publication US5594024A, “Centrally actig substituted phenylazacycloalkanes” (priority 1995, dated 1997)
